# Test results taken from patent US5104980A, “Chromogenic dibenzoxazepinone and dibenzothiazepinone enzyme substrates” (Miles Inc., priority 1989, dated 1992).
# Tested on: β-galactosidase
# Test: cleavage of the chromogenic substrate by β-galactosidase in 50 mM phosphate buffer
# Assay type: biochemical
# Conditions: 50 mM phosphate buffer at pH 7.4 containing 5 mM MgCl2; in the presence of β-galactosidase
# Experimental: When dissolved in 50 mM phosphate buffer at pH 7.4 containing 5 mM magnesium chloride (MgCl2) compound (23)+(24) (mixture) had λmax of 454 nm (^ε =22,000) and 344 nm (^ε =14,000).
substance,measurement,value
"8-β-D-Galactopyranosyloxy-11-methyl-11H-dibenz[b,e] [1,4]oxazepin-1-one (23) and 2-β-D-galactopyranosyloxy-11-methyl-11H-dibenz[b,e][1,4]oxazepin-8-one (24) [(23)+(24)]",Km,75 µM
same,rate (Kcat) of cleavage of the substrate to (20),1.32×10^4 mol. min^-1 /mol. active site
